Test results as given in the supplement of paper PMC11061612.

Assays:
Assay in all cases: Bliss excess, mean over the matrix (fraction); higher = more synergy
[1] = system: B-CPAP (Thyroid Gland Carcinoma)
Outline: (§1)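 Bliss excess equals the observed combination effect minus the expected value EA + EB − EA·EB, where EA and EB are the effects of each agent alone. Combination Emax is the second-highest inhibition within the matrix. Inhibition was scaled from CellTiter-Glo 2.0 luminescence, with 0 set by vehicle wells and 1 by blank wells, after 72 hours of two-drug dosing of cells plated in 1536-well plates.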

[2] = system: CAL-148 (Breast Carcinoma)
Outline: as §1

[3] = system: CCRF-CEM (T-Lymphoblastic Leukemia)
Outline: as §1

[4] = system: EC-GI-10 (Esophageal Squamous Cell Carcinoma)
Outline: as §1

ES4 (Ewing's Sarcoma) = system: ES4 (Ewing's Sarcoma)
Outline: as §1

[5] = system: HCC-78 (Lung Adenocarcinoma)
Outline: as §1

[6] = system: HCC1806 (Breast Carcinoma)
Outline: as §1

HOS (Osteosarcoma) = system: HOS (Osteosarcoma)
Outline: as §1

[7] = system: Hs-578-T (Breast Carcinoma)
Outline: as §1

[8] = system: KP-1N (Pancreatic Carcinoma)
Outline: as §1

[9] = system: KYSE-520 (Esophageal Squamous Cell Carcinoma)
Outline: as §1

[10] = system: LB831-BLC (Bladder Carcinoma)
Outline: as §1

[11] = system: LU-135 (Small Cell Lung Carcinoma)
Outline: as §1

[12] = system: MFE-296 (Endometrial Carcinoma)
Outline: as §1

[13] = system: NCI-H82 (Small Cell Lung Carcinoma)
Outline: as §1

[14] = system: OVCA420 (Ovarian Carcinoma)
Outline: as §1

[15] = system: RO82-W-1 (Thyroid Gland Carcinoma)
Outline: as §1

[16] = system: SK-ES-1 (Ewing's Sarcoma)
Outline: as §1

[17] = system: SNU-5 (Gastric Carcinoma)
Outline: as §1

T98G (Glioblastoma) = system: T98G (Glioblastoma)
Outline: as §1

Row | SMILES | Bliss excess [1] | Bliss excess [2] | Bliss excess [3] | Bliss excess [4] | Bliss excess (ES4 (Ewing's Sarcoma)) | Bliss excess [5] | Bliss excess [6] | Bliss excess (HOS (Osteosarcoma)) | Bliss excess [7] | Bliss excess [8] | Bliss excess [9] | Bliss excess [10] | Bliss excess [11] | Bliss excess [12] | Bliss excess [13] | Bliss excess [14] | Bliss excess [15] | Bliss excess [16] | Bliss excess [17] | Bliss excess (T98G (Glioblastoma))
1 | CN(C)CCCOc1ccc(-c2ccc3ncc4c(c3c2)n(C2CCOCC2)c(=O)n4C)cn1 [AZD0156] + C[C@@H]1COCCN1C2=NC(=NC(=C2)C3(CC3)[S@](=N)(=O)C)C4=C5C=CNC5=NC=C4 [AZD6738] (first compound max 1 µM, 7x7, partner max 10 µM) | 0.027 | -0.0441 | 0.0002 | 0.0263 | 0.0618 | -0.0031 | 0.0241 | 0.024 | -0.0157 | 0.0261 | -0.0172 | -0.0333 | -0.032 | -0.0485 | 0.0286 | 0.0052 | -0.0649 | 0.0267 | -0.0347 | -0.0297
2 | CN(C)CCCOc1ccc(-c2ccc3ncc4c(c3c2)n(C2CCOCC2)c(=O)n4C)cn1 [AZD0156] + O=C(c1cc(Cc2n[nH]c(=O)c3ccccc23)ccc1F)N1CCN(C(=O)C2CC2)CC1 [Olaparib] (first compound max 3 µM, partner max 3 µM) | 0.0785 | 0.0072 | 0.158 | 0.0772 | 0.116 | 0.109 | 0.191 | 0.046 | 0.0937 | -0.0043 | -0.0172 | -0.0407 | 0.0632 | -0.0153 | 0.0369 | 0.0121 | -0.0299 | 0.393 | 0.015 | -0.0085
3 | C=CCn1c(=O)c2cnc(Nc3ccc(N4CCN(C)CC4)cc3)nc2n1-c1cccc(C(C)(C)O)n1 [AZD1775] + C1CN(CCC1(C(=O)N[C@@H](CCO)C2=CC=C(C=C2)Cl)N)C3=NC=NC4=C3C=CN4 [Capivasertib] (first compound max 3 µM, partner max 3 µM) | 0.0065 | -0.0405 | 0.0122 | 0.0203 | 0.0691 | -0.0672 | 0.0151 | -0.0141 | -0.102 | -0.0101 | -0.0129 | -0.0434 | 0.0467 | -0.0091 | 0.003 | -0.0518 | -0.0678 | 0.0726 | -0.0655 | 0.0076
4 | C=CCn1c(=O)c2cnc(Nc3ccc(N4CCN(C)CC4)cc3)nc2n1-c1cccc(C(C)(C)O)n1 [AZD1775] + O=C(c1cc(Cc2n[nH]c(=O)c3ccccc23)ccc1F)N1CCN(C(=O)C2CC2)CC1 [Olaparib] (first compound max 1 µM, partner max 10 µM) | 0.0393 | 0.0068 | -0.0381 | -0.0245 | 0.0199 | -0.029 | -0.0294 | -0.0389 | -0.0965 | -0.0239 | -0.0301 | -0.01 | -0.0249 | -0.0218 | -0.0098 | 0.0916 | -0.0724 | 0.0511 | -0.0833 | -0.113
5 | CCN(CCO)CCCOc1ccc2c(Nc3cc(CC(=O)Nc4cccc(F)c4)[nH]n3)ncnc2c1 [AZD2811] + C=CCn1c(=O)c2cnc(Nc3ccc(N4CCN(C)CC4)cc3)nc2n1-c1cccc(C(C)(C)O)n1 [AZD1775] (first compound max 1 µM, partner max 1 µM) | -0.0363 | -0.0165 | 0.006 | 0.0411 | -0.0024 | 0.0092 | 0.0012 | 0.0066 | -0.0212 | 0.0124 | -0.0048 | 0.005 | -0.0346 | -0.0245 | 0.0241 | -0.0047 | -0.063 | 0.028 | -0.0294 | -0.0167
6 | CCN(CCO)CCCOc1ccc2c(Nc3cc(CC(=O)Nc4cccc(F)c4)[nH]n3)ncnc2c1 [AZD2811] + C[C@@H]1COCCN1C2=NC(=NC(=C2)C3(CC3)[S@](=N)(=O)C)C4=C5C=CNC5=NC=C4 [AZD6738] (first compound max 1 µM, 7x7, partner max 10 µM) | -0.0276 | -0.0252 | -0.0295 | 0.0182 | -0.0042 | 0.0099 | -0.014 | -0.0432 | -0.0811 | -0.0189 | -0.0323 | -0.0744 | -0.0552 | -0.0728 | -0.0406 | -0.0777 | -0.0543 | 0.0382 | -0.0209 | -0.0645
7 | CCN(CCO)CCCOc1ccc2c(Nc3cc(CC(=O)Nc4cccc(F)c4)[nH]n3)ncnc2c1 [AZD2811] + O=C(c1cc(Cc2n[nH]c(=O)c3ccccc23)ccc1F)N1CCN(C(=O)C2CC2)CC1 [Olaparib] (first compound max 1 µM, 7x7, partner max 10 µM) | 0.0104 | 0.0319 | -0.0134 | 0.0377 | -0.0138 | 0.0013 | 0.0298 | -0.0188 | -0.0192 | -0.0175 | -0.0217 | 0.0083 | -0.0632 | -0.011 | 0.022 | 0.0008 | -0.0564 | -0.0075 | -0.0237 | 0.0112
8 | CN(CCO)CC[C@H](CSc1ccccc1)Nc1ccc(S(=O)(=O)NC(=O)c2ccc(N3CCC([C@@H](O)c4ccccc4-c4ccc(Cl)cc4)CC3)cc2)cc1S(=O)(=O)C(F)(F)F [AZD4320] + C1CN(CCC1(C(=O)N[C@@H](CCO)C2=CC=C(C=C2)Cl)N)C3=NC=NC4=C3C=CN4 [Capivasertib] (first compound max 1 µM, 7x7, partner max 3 µM) | -0.0377 | 0.0346 | 0.0753 | 0.0003 | -0.0333 | -0.034 | -0.0078 | -0.0467 | -0.0198 | -0.0389 | -0.0696 | -0.0212 | 0.0051 | -0.0255 | 0.0177 | -0.0601 | -0.0513 | 0.0827 | -0.0453 | -0.0371
9 | CN(CCO)CC[C@H](CSc1ccccc1)Nc1ccc(S(=O)(=O)NC(=O)c2ccc(N3CCC([C@@H](O)c4ccccc4-c4ccc(Cl)cc4)CC3)cc2)cc1S(=O)(=O)C(F)(F)F [AZD4320] + C=CCn1c(=O)c2cnc(Nc3ccc(N4CCN(C)CC4)cc3)nc2n1-c1cccc(C(C)(C)O)n1 [AZD1775] (first compound max 1 µM, partner max 1 µM) | 0.0808 | -0.0033 | 0.0065 | -0.0597 | 0.12 | -0.0072 | 0.0043 | 0.0337 | 0.022 | -0.0325 | -0.0172 | 0.0317 | 0.0636 | -0.0075 | 0.0113 | -0.0291 | -0.0364 | 0.093 | 0.0426 | 0.0317
10 | CN(CCO)CC[C@H](CSc1ccccc1)Nc1ccc(S(=O)(=O)NC(=O)c2ccc(N3CCC([C@@H](O)c4ccccc4-c4ccc(Cl)cc4)CC3)cc2)cc1S(=O)(=O)C(F)(F)F [AZD4320] + CCN(CCO)CCCOc1ccc2c(Nc3cc(CC(=O)Nc4cccc(F)c4)[nH]n3)ncnc2c1 [AZD2811] (first compound max 1 µM, 7x7, partner max 1 µM) | 0.0126 | -0.0027 | -0.0228 | 0.0532 | 0.0157 | -0.0361 | -0.0127 | -0.0288 | 0.183 | -0.0317 | -0.0505 | 0.0234 | -0.0124 | -0.0109 | 0.0891 | -0.0352 | 0.0032 | 0.0156 | -0.0115 | 0.0346
11 | CN(CCO)CC[C@H](CSc1ccccc1)Nc1ccc(S(=O)(=O)NC(=O)c2ccc(N3CCC([C@@H](O)c4ccccc4-c4ccc(Cl)cc4)CC3)cc2)cc1S(=O)(=O)C(F)(F)F [AZD4320] + CN(C)CCCOc1ccc(-c2ccc3ncc4c(c3c2)n(C2CCOCC2)c(=O)n4C)cn1 [AZD0156] (first compound max 1 µM, 7x7, partner max 1 µM) | -0.0065 | 0.0183 | 0.023 | -0.0333 | 0.0223 | -0.033 | 0.0142 | -0.0317 | -0.0178 | -0.0481 | -0.051 | -0.0403 | 0.0332 | -0.0346 | 0.012 | -0.0206 | -0.0258 | 0.047 | 0.0286 | -0.044
12 | CN(CCO)CC[C@H](CSc1ccccc1)Nc1ccc(S(=O)(=O)NC(=O)c2ccc(N3CCC([C@@H](O)c4ccccc4-c4ccc(Cl)cc4)CC3)cc2)cc1S(=O)(=O)C(F)(F)F [AZD4320] + C[C@@H]1COCCN1C2=NC(=NC(=C2)C3(CC3)[S@](=N)(=O)C)C4=C5C=CNC5=NC=C4 [AZD6738] (first compound max 1 µM, 7x7, partner max 10 µM) | -0.0422 | -0.0231 | 0.0394 | -0.0341 | 0.0351 | -0.0564 | 0.0208 | 0.0111 | -0.136 | -0.0135 | -0.0026 | -0.0415 | 0.0417 | 0.0178 | -0.0251 | 0.006 | -0.0025 | 0.0339 | 0.0061 | -0.0468
13 | CN(CCO)CC[C@H](CSc1ccccc1)Nc1ccc(S(=O)(=O)NC(=O)c2ccc(N3CCC([C@@H](O)c4ccccc4-c4ccc(Cl)cc4)CC3)cc2)cc1S(=O)(=O)C(F)(F)F [AZD4320] + C[C@@H](Nc1cc(F)cc(F)c1)c1cc(C(=O)N(C)C)cc2c(=O)cc(N3CCOCC3)oc12 [AZD8186] (first compound max 1 µM, 7x7, partner max 3 µM) | 0.0064 | -0.0054 | 0.0013 | 0.0191 | -0.0507 | 0.003 | 0.0033 | 0.0607 | -0.0314 | 0.0059 | -0.0712 | 0.0441 | 0.0404 | 0.0075 | 0.0359 | 0.002 | -0.0581 | 0.0521 | 0.0726 | 0.0151
14 | CN(CCO)CC[C@H](CSc1ccccc1)Nc1ccc(S(=O)(=O)NC(=O)c2ccc(N3CCC([C@@H](O)c4ccccc4-c4ccc(Cl)cc4)CC3)cc2)cc1S(=O)(=O)C(F)(F)F [AZD4320] + Cc1cc2ncnn2cc1Nc1ncc2c(n1)n(C1CCOCC1)c(=O)n2C [AZD7648] (first compound max 1 µM, 7x7, partner max 10 µM) | -0.0275 | -0.0011 | 0.0282 | -0.0397 | 0.0147 | -0.0227 | -0.058 | -0.0225 | 0.0165 | -0.0588 | -0.0365 | 0.0041 | 0.0109 | -0.0185 | 0.012 | -0.0436 | -0.0613 | 0.0809 | -0.0151 | -0.0493
